Measured values reported in patent publication US8389523B2, “Substituted quinoxaline and an agrochemical composition thereof” (Kumiai Chemical Industry Co., Ltd., priority 2007, dated 2013).

Experiments:
Assay type in all cases: in vivo
Design in all cases: scale not given here
[1] = system: Monochoria vaginalis (Burm. f.) Presl var. plantaginea (Roxb.) Solms-Laub.; assay: Herbicidal effects in paddy field soil treatment (Test Example 1); settings: for Herbicidal effects index, Monochoria vaginalis (Burm. f.) Presl var. plantaginea (Roxb.) Solms-Laub.: paddy field soil treatment, 1000 g of the active ingredient per hectare, wettable powder added dropwise on water surface, 21st day after treatment
Method in brief: (§1)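 Paddy soil pre-emergence test: seeds sown, flooded 3 cm; next day wettable powder in water applied dropwise to water surface, 1000 g a.i./ha; greenhouse; effect rated visually on scale at 21 d post-treatment.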

[2] = system: Echinochloa oryzicola Vasing; assay: as above; settings: for Herbicidal effects index, Echinochloa oryzicola Vasing: paddy field soil treatment, 1000 g of the active ingredient per hectare, wettable powder added dropwise on water surface, 21st day after treatment
Method in brief: as §1

[3] = system: Scirpus juncoides Roxb. var. ohwianus. T. Koyama; assay: as above; settings: for Herbicidal effects index, Scirpus juncoides Roxb. var. ohwianus. T. Koyama: paddy field soil treatment, 1000 g of the active ingredient per hectare, wettable powder added dropwise on water surface, 21st day after treatment
Method in brief: as §1

Amaranthus viridis L. [4] = assay: Herbicidal effects in upland field foliar treatment (Test Example 3); settings: criteria of Table 138; for herbicidal effects on Amaranthus viridis L.: 1000 g of the active ingredient per hectare, 14th day after the treatment, wettable powder; for herbicidal effect (index) on Amaranthus viridis L.: 1000 g active ingredient per hectare, 14th day after treatment
Method in brief: (§2)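 Greenhouse pot test, upland soil; 2-wk-old plants sprayed from above with water-diluted wettable powder (1000 L/ha spray volume, 1000 g a.i./ha). Regrown in greenhouse; visual herbicidal score on day 14 post-treatment.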

[5] = system: Echinochloa crus-galli (L.) P. Beauv. var. crus-galli; assay: as above; settings: criteria of Table 138; for herbicidal effects on Echinochloa crus-galli (L.) P. Beauv. var. crus-galli: 1000 g of the active ingredient per hectare, 14th day after the treatment, wettable powder; for herbicidal effect (index) on Echinochloa crus-galli (L.) P. Beauv. var. crus-galli: 1000 g active ingredient per hectare, 14th day after treatment
Method in brief: as §2

[6] = system: Abutilon theophrasti medicus; assay: as above; settings: criteria of Table 138; for herbicidal effects on Abutilon theophrasti medicus: 1000 g of the active ingredient per hectare, 14th day after the treatment, wettable powder; for herbicidal effect (index) on Abutilon theophrasti medicus: 1000 g active ingredient per hectare, 14th day after treatment
Method in brief: as §2

Amaranthus viridis L. [7] = assay: Herbicidal effects in upland field soil treatment (Test Example 2); settings: 1000 g active ingredient per hectare, 21st day after treatment, criteria of Table 138
Method in brief: (§3)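 Seeds sown in upland soil and covered; surface sprayed with water-diluted wettable powder, 1000 g a.i./ha, spray volume 1000 L/ha. Greenhouse growth, visual herbicidal rating at day 21.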

[8] = system: Abutilon theophrasti medicus; assay: as above; settings: 1000 g active ingredient per hectare, 21st day after treatment, criteria of Table 138
Method in brief: as §3

[9] = paddy field soil treatment (Test Example 1), criteria of Table 138

Row | Structure (SMILES) | Herbicidal effects index, Monochoria vaginalis (Burm. f.) Presl var. plantaginea (Roxb.) Solms-Laub. [1] | Herbicidal effects index, Echinochloa oryzicola Vasing [2] | Herbicidal effects index, Scirpus juncoides Roxb. var. ohwianus. T. Koyama [3] | herbicidal effects on Amaranthus viridis L. (Amaranthus viridis L. [4]) | herbicidal effects on Echinochloa crus-galli (L.) P. Beauv. var. crus-galli [5] | herbicidal effects on Abutilon theophrasti medicus [6] | herbicidal effect (index) on Amaranthus viridis L. (Amaranthus viridis L. [7]) | herbicidal effect (index) on Abutilon theophrasti medicus [8] | herbicidal effect (index) on Monochoria vaginalis (Burm. f.) Presl var. plantaginea (Roxb.) Solms-Laub. [1, 9] | herbicidal effect (index) on Echinochloa oryzicola Vasing [2, 9] | herbicidal effect (index) on Scirpus juncoides Roxb. var. ohwianus. T. Koyama [3, 9] | herbicidal effect (index) on Amaranthus viridis L. (Amaranthus viridis L. [4]) | herbicidal effect (index) on Echinochloa crus-galli (L.) P. Beauv. var. crus-galli [5] | herbicidal effect (index) on Abutilon theophrasti medicus [6]
1 | O=C1CCCC(O)=C1C(=O)c1nc2cccnc2n(-c2ccccc2)c1=O [IV-1, 2-(2-hydroxy-6-oxo-1-cyclohexenecarbonyl)-4-phenyl-pyrido[2,3-b]pyrazin-3(4H)-one] | 5 | 5 | 5 | 5 | 5 | 5 | 5 | 5 | – | – | – | – | – | –
2 | CCOc1cc(-n2c(=O)c(C(=O)C3=C(O)CCCC3=O)nc3ccccc32)ccc1OC [II-217] | 5 | 4 | 5 | 5 | 4 | 5 | 5 | 5 | – | – | – | – | – | –
3 | O=C1CCCC(O)=C1C(=O)c1nc2ccccc2n(-c2ccc(OC(F)F)cc2)c1=O [II-95] | 5 | 5 | 5 | 5 | 5 | 5 | 5 | 5 | – | – | – | – | – | –
4 | O=C1CCCC(O)=C1C(=O)c1ccc2ccccc2n1 [comparative compound B, reference compound] | – | – | – | 1 | 0 | 5 | 2 | 2 | 0 | 0 | 0 | – | – | –
5 | CCOc1ccc(-n2c(=O)c(C(=O)C3=C(O)CCCC3=O)nc3ccccc32)cc1 [II-69] | 5 | 5 | 5 | 5 | 5 | 5 | 5 | 4 | – | – | – | – | – | –
6 | O=C1CCCC(O)=C1C(=O)c1nc2cccnc2n(-c2ccc(C(F)(F)F)cc2)c1=O [IV-44] | 5 | 5 | 5 | 5 | 5 | 5 | 5 | 5 | – | – | – | – | – | –
7 | O=C1CCCC(O)=C1C(=O)c1nc2ccccc2n(-c2cccc(OC(F)F)c2)c1=O [II-90] | 5 | 5 | 5 | 5 | 5 | 5 | 5 | 5 | – | – | – | – | – | –
8 | O=C1CCCC(O)=C1C(=O)c1nc2ccccc2n(-c2ccc(Cl)cc2)c1=O [II-13] | 5 | 5 | 5 | – | – | – | 5 | 5 | – | – | – | 5 | 5 | 5
9 | Cc1cc(-n2c(=O)c(C(=O)C3=C(O)C4CCC(C4)C3=O)nc3ccccc32)no1 (stereo not shown) [I-148] | 5 | 5 | 5 | – | – | – | 5 | 5 | – | – | – | 5 | 5 | 5
10 | CC1(C)C(=O)C(C(=O)c2nc3ccccc3n(-c3ccc(Cl)cc3)c2=O)=C(O)C(C)(C)C1=O [II-15] | 5 | 5 | 5 | 5 | 5 | 5 | 5 | 5 | – | – | – | – | – | –
11 | CC1COc2cc(-n3c(=O)c(C(=O)C4=C(O)CCCC4=O)nc4ccccc43)ccc2O1 (stereo not shown) [II-231] | 5 | 5 | 5 | 5 | 5 | 5 | 5 | 4 | – | – | – | – | – | –
12 | CCc1cccc(-n2c(=O)c(C(=O)C3=C(O)CCCC3=O)nc3cccnc32)c1 [IV-23] | 5 | 5 | 5 | 5 | 5 | 4 | 5 | 5 | – | – | – | – | – | –
13 | Cn1c(=O)c(C(=O)C2=C(O)CCCC2=O)nc2cc(Cl)ccc21 [I-225] | 5 | 5 | 4 | – | – | – | 5 | 5 | – | – | – | 5 | 4 | 5
14 | COCC(C)n1c(=O)c(C(=O)C2=C(O)CCCC2=O)nc2cccnc21 (stereo not shown) [III-90] | 5 | 5 | 5 | 5 | 5 | 5 | 5 | 5 | – | – | – | – | – | –
